Source: article PMC12305873, “Chlorinated biscoumarins inhibit chikungunya virus replication in cell-based and animal models” (Emerging Microbes & Infections, 2025)

What was measured:
CHIKV [1] = experiment: Cell-based anti-attachment assay in Vero cells; details: 10 µM
CHIKV [2] = experiment: In vivo anti-CHIKV efficacy, CHIKV-induced arthritis mouse model
CHIKV nsP1 = CHIKV nsP1 (Chikungunya virus, UniProt Q8JUX6); experiment: MTase-Glo methyltransferase assay; details: At 50 µM (method: 100 µM), purified CHIKV nsP1
Chain of CHIKV nsP1 (Q8JUX6 1-535): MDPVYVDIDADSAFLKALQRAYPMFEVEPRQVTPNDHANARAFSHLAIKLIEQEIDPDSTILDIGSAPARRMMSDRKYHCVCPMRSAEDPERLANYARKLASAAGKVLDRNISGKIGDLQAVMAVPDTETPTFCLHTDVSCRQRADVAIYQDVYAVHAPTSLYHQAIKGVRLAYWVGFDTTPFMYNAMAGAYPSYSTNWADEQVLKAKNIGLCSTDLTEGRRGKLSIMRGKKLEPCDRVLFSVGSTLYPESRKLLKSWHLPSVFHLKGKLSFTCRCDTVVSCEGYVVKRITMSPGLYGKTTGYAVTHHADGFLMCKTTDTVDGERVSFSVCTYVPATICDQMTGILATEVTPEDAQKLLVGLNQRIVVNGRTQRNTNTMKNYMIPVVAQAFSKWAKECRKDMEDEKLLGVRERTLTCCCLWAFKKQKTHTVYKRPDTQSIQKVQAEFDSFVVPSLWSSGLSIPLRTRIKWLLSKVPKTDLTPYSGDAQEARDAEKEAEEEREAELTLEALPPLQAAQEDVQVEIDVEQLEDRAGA

Sprague Dawley rats = experiment: ALT and Cr levels in rat plasma samples of the PK study; details: single oral 250 mg/kg, plasma at 24, 48, 72 h
CHIKV [3] = experiment: CHIKV plaque assay in HEK 293 cells; details: Chikungunya virus, HEK293, read-out: EC50, CHIKV inhibition
[4] = Pharmacokinetic study in mice
[5] = tested on: dengue virus NS5 methyltransferase (MTase); parameters: method as in Loeanurit et al., under review; details: targeting the SAM binding site; ref Loeanurit et al., under review; cited from earlier work
CHIKV [6] = experiment: CHIKV plaque assay in Vero cells; details: Chikungunya virus, read-out: EC50, CHIKV inhibition
[7] = Cytotoxicity by MTS assay in HEK 293 cells; details: human
[8] = Pharmacokinetic study in rats; details: rat
[9] = Cytotoxicity assay alongside the replicon assay; details: hamster
CHIKV replicon = CHIKV replicon inhibition assay (Renilla luciferase) in BHK-21 cells; details: Chikungunya virus, BHK-21, 24 h, read-out: EC50, CHIKV replicon inhibition (printed IC50 in Figure 2g,h and b75)
C57BL/6 mice = experiment: Single-dose acute oral toxicity in mice
CHIKV [10] = experiment: Time-of-addition and time-of-removal assay in Vero cells; details: 10 µM, MOI 1
[11] = compounds single oral 250 mg/kg, ribavirin 50 mg/kg BID IP
[12] = C57BL/6, mouse, in vivo, po, 250 mg/kg
[13] = mice, oral 250 mg/kg, mean ± SD
[14] = Sprague Dawley, in vivo, po, 250 mg/kg
[15] = oral 250 mg/kg, mean ± SD, 250 mg/kg
[16] = single oral dose 250 or 500 mg/kg

O=c1oc2ccccc2c(O)c1C(c1ccc(Cl)cc1)c1c(O)c2ccccc2oc1=O [compound 4, 3,3′-((4-chlorophenyl)methylene)bis(4-hydroxy-2H-chromen-2-one)]
CHIKV inhibition, post-incubation or throughout (CHIKV [1]; Vero, MOI 0.1, 24 hpi): robust antiviral activity was observed
CHIKV inhibition, pre-treatment, pre-incubation or co-incubation (CHIKV [1]; Vero, MOI 0.1, 24 hpi): Neither compound exhibited significant inhibition
Effect of compound pre-treatment on viral replication (CHIKV [1]; cells treated 1 h before virus): enhanced the viral replication
PMN infiltration in footpad (H&E), day 1 (CHIKV [2]; [11]): reduced PMN infiltration on day 1
PMN infiltration in footpad (H&E), days 2 and 3 (CHIKV [2]; [11]): PMN infiltration persisting at moderate levels
CHIKV titres in footpad tissues, plaque assay, day 2 post-infection (CHIKV [2]; single oral 250 mg/kg): significantly reduced CHIKV titres in footpad tissues
Systemic viremia (plasma CHIKV titres, plaque assay) (CHIKV [2]; single oral 250 mg/kg): no marked reduction in systemic viremia
Foot swelling and activity vs vehicle group (CHIKV [2]; single oral 250 mg/kg at 24 h after infection, transient, not significantly different from vehicle): moderate improvement in foot swelling and activity
nsP1 methyltransferase enzymatic activity vs DMSO control (CHIKV nsP1): significantly inhibited enzymatic activity
ALT and Cr levels (Sprague Dawley rats): within normal limits
EC50 (CHIKV [3]): 4.65 ± 0.56 µM
AUC [4, 12]: 2750 µg·h/mL
AUC(0-inf) [4, 12]: 2750 ± 927 µg·h/mL
AUC(0-t) [4, 12]: 2750 ± 927 µg·h/mL
CL/F [4, 12]: 1.67 mL/min/kg
MRT inf [4, 12]: 10.1 ± 0.366 h
MRT last [4, 12]: 10.1 ± 0.356 h
Tmax [4, 12]: 6 h
Cmax ([4]; C57BL/6, mouse, in vivo, po, 250 mg/kg, Cmax, mice, oral 250 mg/kg, mean ± SD): 197 ± 77 µg/mL
half-life ([4]; C57BL/6, mouse, in vivo, po, 250 mg/kg, HL (half-life), mice, oral 250 mg/kg, mean ± SD): 3.42 h
Cmax ([4]; C57BL/6, mouse, in vivo, po, 250 mg/kg, Peak plasma concentration (Cmax), mice, oral 250 mg/kg): 197 µg/mL
Time within which plasma concentration fell below EC90 and EC50 ([4]; mice, oral 250 mg/kg): 24 to 48 h
AUC_% Extrap_obs [4, 13]: 0.018 ± 0.014%
Vz_F_obs [4, 13]: 0.494 ± 0.200 L/kg
HL (half-life) ([4]; mice, oral 250 mg/kg, mean ± SD, 250 mg/kg): 3.422 ± 0.419 h
Inhibition of dengue virus NS5 methyltransferase [5]: inhibitors of the dengue virus NS5 methyltransferase (MTase)
EC50 (CHIKV [6]): 2.9 ± 0.25 µM
CC50 at 2 days [7]: 44.4 ± 1.48 µM
AUC [8, 14]: 4180 µg·h/mL
AUC(0-inf) [8, 14]: 4440 ± 1730 µg·h/mL
AUC(0-t) [8, 14]: 4180 ± 1640 µg·h/mL
CL/F [8, 14]: 1.08 mL/min/kg
MRT inf [8, 14]: 26.77 ± 0.127 h
MRT last [8, 14]: 22.2 ± 0.801 h
Cmax ([8]; Sprague Dawley, in vivo, po, 250 mg/kg, Cmax, oral 250 mg/kg, mean ± SD): 133 ± 40.8 µg/mL
half-life ([8]; Sprague Dawley, in vivo, po, 250 mg/kg, HL (half-life), oral 250 mg/kg, mean ± SD): 16.6 h
Cmax ([8]; Sprague Dawley, in vivo, po, 250 mg/kg, Peak plasma concentration (Cmax), rats, oral 250 mg/kg): 133 µg/mL
Tmax ([8]; Sprague Dawley, in vivo, po, 250 mg/kg, Tmax, oral 250 mg/kg, mean ± SD): 10.7 h
AUC_% Extrap_obs ([8]; oral 250 mg/kg, mean ± SD): 6.119 ± 0.999%
Vz_F_obs ([8]; oral 250 mg/kg, mean ± SD): 1.596 ± 0.946 L/kg
HL (half-life) [8, 15]: 16.649 ± 1.601 h
Tmax [8, 15]: 10.667 ± 2.309 h
CC50 [9]: 79.87 ± 0.4 µM
EC50 (CHIKV replicon): 5.04 ± 0.23 µM
Activity scores (C57BL/6 mice; [16]): no significant difference in activity scores
Kidney histology (C57BL/6 mice; [16]): remained within normal limits
Liver (ALT) and kidney (creatinine) biomarkers (C57BL/6 mice; single oral dose 250 or 500 mg/kg, days 1, 3, 7): remained within normal limits
Survival and clinical signs over 7 days (C57BL/6 mice; single oral dose 250 or 500 mg/kg, mice): All animals survived
Liver histology (C57BL/6 mice; single oral dose, day 1, also seen in vehicle-treated animals): Mild, transient hepatocellular vacuolization
Tolerability of a single oral dose (C57BL/6 mice; up to 500 mg/kg, mice): well tolerated
Time-of-addition time-points significantly different from DMSO control (CHIKV [10]): 1–6 hpi
Viral titres in time-of-addition (TOA) assay (CHIKV [10]): significantly reduced viral titres when added up to 9 hpi
